According to PubChem BioAssay (NCI):
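Interpolation was linear, between the two tested concentrations surrounding the appropriate level; five concentrations were tested over 48 hours in 96-well plates. TGI: total growth inhibition.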

Key:
Assay in all cases: NCI-60 cell line screen, 48 h
[1] = test system: MALME-3M melanoma
[2] = test system: 786-0 renal
[3] = test system: UACC-257 melanoma
[4] = test system: OVCAR-8 ovarian
[5] = test system: SW-620 colon
[6] = test system: NCI-H460 lung
[7] = test system: SR leukemia
[8] = test system: T-47D breast
[9] = test system: MOLT-4 leukemia
[10] = test system: KM12 colon
[11] = test system: NCI/ADR-RES ovarian
[12] = test system: SK-MEL-5 melanoma
[13] = test system: LOX IMVI melanoma
[14] = test system: IGROV1 ovarian
[15] = test system: RXF 393 renal
[16] = test system: HL-60(TB) leukemia
[17] = test system: SN12C renal
[18] = test system: PC-3 prostate
[19] = test system: EKVX NSCLC
[20] = test system: HOP-92 NSCLC
[21] = test system: NCI-H23 lung
[22] = test system: CCRF-CEM leukemia
[23] = test system: OVCAR-3 ovarian
[24] = test system: NCI-H522 lung
[25] = test system: SF-295 CNS
[26] = test system: SK-MEL-28 melanoma
[27] = test system: COLO 205 colon
[28] = test system: SF-268 CNS
[29] = test system: HT29 colon
[30] = test system: MDA-MB-435
[31] = test system: SK-MEL-2 melanoma
[32] = test system: SK-OV-3 ovarian
[33] = test system: BT-549 breast
[34] = test system: UO-31 renal
[35] = test system: SF-539 CNS
[36] = test system: DU-145 prostate
[37] = test system: MCF7 breast
[38] = test system: HCT-116 colon
[39] = test system: A498 renal
[40] = test system: RPMI-8226 leukemia
[41] = test system: UACC-62 melanoma
[42] = test system: A549 NSCLC
[43] = test system: ACHN renal
[44] = test system: CAKI-1 renal
[45] = test system: HCT-15 colon
[46] = test system: HS 578T breast
[47] = test system: OVCAR-5 ovarian
[48] = test system: U251 CNS
[49] = test system: SNB-19 CNS
[50] = test system: MDA-N
[51] = test system: M14 melanoma
[52] = test system: OVCAR-4 ovarian
[53] = test system: SNB-75 CNS
[54] = test system: K-562 leukemia
[55] = test system: TK-10 renal
[56] = test system: MDA-MB-231 breast
[57] = test system: HOP-62 NSCLC
[58] = test system: KM20L2 colon
[59] = test system: M19-MEL melanoma
[60] = test system: LXFL 529 NSCLC
[61] = test system: XF 498 CNS
[62] = test system: SNB-78 CNS
[63] = test system: HCC-2998 colon
[64] = test system: NCI-H226 lung
[65] = test system: DMS 114 small cell lung
[66] = test system: HOP-18 NSCLC
[67] = test system: DMS 273 small cell lung
[68] = test system: DLD-1 colon

SMILES: Cc1[nH]c2ccccc2c1C=Nc1ccc(Oc2ccccc2)cc1
- TGI [1]: 34.6 µM
- TGI [2]: 30.3 µM
- TGI [3]: 31.8 µM
- TGI [4]: 43.4 µM
- TGI [5]: 42.6 µM
- TGI [6]: 40 µM
- TGI [7]: 51 µM
- TGI [8]: 40.5 µM
- TGI [9]: 35.7 µM
- TGI [10]: 31.4 µM
- TGI [11]: 38.8 µM
- TGI [12]: 28.9 µM
- TGI [13]: 32.8 µM
- TGI [14]: 28.3 µM
- TGI [15]: 31.7 µM
- TGI [16]: 32.3 µM
- TGI [17]: 31.9 µM
- TGI [18]: 26.9 µM
- TGI [19]: 27.4 µM
- TGI [20]: 31.2 µM
- TGI [21]: 32.1 µM
- TGI [22]: 28.9 µM
- TGI [23]: 27.6 µM
- TGI [24]: 31.6 µM
- TGI [25]: 29.1 µM
- TGI [26]: 34.7 µM
- TGI [27]: 30.1 µM
- TGI [28]: 34.1 µM
- TGI [29]: 31.3 µM
- TGI [30]: 31.8 µM
- TGI [31]: 34.3 µM
- TGI [32]: 32 µM
- TGI [33]: 35.5 µM
- TGI [34]: 24.4 µM
- TGI [35]: 33 µM
- TGI [36]: 30.4 µM
- TGI [37]: 39.7 µM
- TGI [38]: 31.3 µM
- TGI [39]: 37 µM
- TGI [40]: 35.4 µM
- TGI [41]: 32 µM
- TGI [42]: 32.3 µM
- TGI [43]: 30.8 µM
- TGI [44]: 30.4 µM
- TGI [45]: 35 µM
- TGI [46]: 52 µM
- TGI [47]: 30 µM
- TGI [48]: 29.3 µM
- TGI [49]: 33.1 µM
- TGI [50]: 31.9 µM
- TGI [51]: 30.3 µM
- TGI [52]: 34.6 µM
- TGI [53]: 26.1 µM
- TGI [54]: 58.1 µM
- TGI [55]: 30.2 µM
- TGI [56]: 32.2 µM

SMILES: CCN1/C(=C/C(C)=C/c2sc3ccccc3[n+]2CC)Sc2ccccc21
- TGI [1]: 1.71 µM
- TGI [4]: 1.37 µM
- TGI [57]: 0.391 µM
- TGI [58]: 2.03 µM
- TGI [6]: 0.517 µM
- TGI [7]: 1.75 µM
- TGI [9]: 1.15 µM
- TGI [10]: 1.21 µM
- TGI [12]: 1.11 µM
- TGI [14]: 2 µM
- TGI [15]: 1.59 µM
- TGI [16]: 4.78 µM
- TGI [19]: 1.4 µM
- TGI [20]: 0.338 µM
- TGI [21]: 0.824 µM
- TGI [59]: 2.16 µM
- TGI [60]: 1.2 µM
- TGI [22]: 0.166 µM
- TGI [25]: 0.491 µM
- TGI [26]: 1.22 µM
- TGI [28]: 1.76 µM
- TGI [29]: 1.72 µM
- TGI [31]: 1.1 µM
- TGI [32]: 0.375 µM
- TGI [34]: 1.47 µM
- TGI [35]: 1.11 µM
- TGI [38]: 1.42 µM
- TGI [39]: 1.82 µM
- TGI [40]: 4.48 µM
- TGI [41]: 1.21 µM
- TGI [61]: 0.663 µM
- TGI [42]: 1.42 µM
- TGI [43]: 3.13 µM
- TGI [44]: 0.693 µM
- TGI [62]: 2.51 µM
- TGI [47]: 1.73 µM
- TGI [49]: 0.0976 µM
- TGI [51]: 0.847 µM
- TGI [52]: 1.62 µM
- TGI [53]: 1.15 µM
- TGI [54]: 1.24 µM
- TGI [55]: 1.37 µM
- TGI [63]: 0.876 µM

SMILES: COc1ccc(C(Nc2ncccn2)c2cc3c(cc2O)OCO3)cc1 (configuration not stated)
- TGI [1]: 54.6 µM
- TGI [2]: 39.3 µM
- TGI [3]: 36.4 µM
- TGI [64]: 44.6 µM
- TGI [4]: 45.2 µM
- TGI [57]: 54.5 µM
- TGI [5]: 28.3 µM
- TGI [6]: 47.2 µM
- TGI [7]: 32.4 µM
- TGI [8]: 28 µM
- TGI [9]: 82 µM
- TGI [10]: 37.8 µM
- TGI [11]: > 100 µM
- TGI [12]: 50.9 µM
- TGI [13]: 32.2 µM
- TGI [14]: 59.3 µM
- TGI [15]: 36.3 µM
- TGI [16]: 46 µM
- TGI [17]: 37.8 µM
- TGI [18]: 43.2 µM
- TGI [19]: 55.7 µM
- TGI [20]: > 100 µM
- TGI [21]: 35.3 µM
- TGI [23]: 32.7 µM
- TGI [24]: 31.7 µM
- TGI [25]: > 100 µM
- TGI [26]: 52.4 µM
- TGI [27]: 70.6 µM
- TGI [28]: 38.4 µM
- TGI [29]: 58.4 µM
- TGI [30]: 50.6 µM
- TGI [31]: 46.9 µM
- TGI [32]: 51.2 µM
- TGI [33]: 64.3 µM
- TGI [34]: 34.4 µM
- TGI [35]: 33.1 µM
- TGI [36]: 44.4 µM
- TGI [37]: 77.3 µM
- TGI [38]: 71.3 µM
- TGI [39]: > 100 µM
- TGI [40]: > 100 µM
- TGI [41]: > 100 µM
- TGI [42]: > 100 µM
- TGI [43]: > 100 µM
- TGI [44]: 46.9 µM
- TGI [45]: 44.6 µM
- TGI [46]: 52.4 µM
- TGI [47]: 69.6 µM
- TGI [48]: 28.7 µM
- TGI [49]: 31.1 µM
- TGI [50]: 42.3 µM
- TGI [51]: 39.4 µM
- TGI [52]: > 100 µM
- TGI [53]: 22.7 µM
- TGI [54]: > 100 µM
- TGI [55]: 37.6 µM
- TGI [63]: 47.4 µM
- TGI [56]: 48.2 µM

SMILES: C/C(=N\Nc1ccc([N+](=O)[O-])cc1)C(=O)N(C)Nc1ccccc1
- TGI [2]: > 100 µM
- TGI [3]: > 100 µM
- TGI [64]: > 100 µM
- TGI [4]: > 100 µM
- TGI [57]: > 100 µM
- TGI [5]: > 100 µM
- TGI [58]: > 100 µM
- TGI [6]: > 100 µM
- TGI [7]: > 100 µM
- TGI [9]: > 100 µM
- TGI [10]: 64.6 µM
- TGI [13]: > 100 µM
- TGI [14]: > 100 µM
- TGI [15]: > 100 µM
- TGI [16]: > 100 µM
- TGI [17]: > 100 µM
- TGI [19]: > 100 µM
- TGI [65]: > 100 µM
- TGI [20]: > 100 µM
- TGI [21]: > 100 µM
- TGI [59]: > 100 µM
- TGI [60]: > 100 µM
- TGI [22]: > 100 µM
- TGI [23]: > 100 µM
- TGI [24]: > 100 µM
- TGI [66]: > 100 µM
- TGI [25]: > 100 µM
- TGI [27]: > 100 µM
- TGI [29]: > 100 µM
- TGI [67]: > 100 µM
- TGI [31]: > 100 µM
- TGI [32]: > 100 µM
- TGI [68]: > 100 µM
- TGI [34]: > 100 µM
- TGI [35]: > 100 µM
- TGI [39]: > 100 µM
- TGI [40]: > 100 µM
- TGI [41]: > 100 µM
- TGI [61]: > 100 µM
- TGI [42]: > 100 µM
- TGI [43]: > 100 µM
- TGI [45]: > 100 µM
- TGI [48]: > 100 µM
- TGI [49]: > 100 µM
- TGI [51]: > 100 µM
- TGI [52]: > 100 µM
- TGI [53]: > 100 µM
- TGI [54]: > 100 µM
- TGI [55]: > 100 µM
- TGI [63]: > 100 µM
